# Test results reported in PubChem BioAssay AID732 (Emory University Molecular Libraries Screening Center, 2007).
# Values joined by “and” are separate entries in the source; they are usually repeats but may differ in a detail not shown here. Equal values may be shown once. Active and inactive are the calls of the source. The rule behind the calls is not given here.
# Tested on: in vivo angiogenesis, blood vessel count
# Test: angiogenesis inhibition in living animals, in vivo study, HTS (AID 732);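 note: zebrafish embryos dosed at one day post fertilization; 0% = reference inhibitor and 100% = plate mean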
# Details: stronger effect = lower value;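 tested at 30 µM in the well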
row,SMILES,vessel count % control
1,O=C1C(c2c(O)[nH]c3ccc(S(=O)(=O)O)cc23)=Nc2ccccc21,101% (inactive)
2,CN(C(=O)Cc1ccc(Cl)c(Cl)c1)C(CN1CCCC1)c1cccc(OCC(=O)O)c1 (stereo not given),124% (inactive)
3,COc1cc2c(cc1OC)-c1cc(=Nc3c(C)cc(C)cc3C)n(C)c(=O)n1CC2,58.5% (inactive)
4,COc1ccc(CCN)cc1O,108% (inactive)
5,C[C@H](NC(=O)/C(C#N)=C/c1ccc(O)c(O)c1)c1ccccc1,102% (inactive)
6,O=C(O)C1=CCNCC1,131% (inactive)
7,O=C(N[C@@H](Cc1ccccc1)C(=O)CCl)OCc1ccccc1,0% (inactive)
8,CCNC(=O)[C@H]1O[C@@H](n2cnc3c(N)ncnc32)C(O)[C@H]1O (stereo not given in full),110% (inactive)
9,C[C@]12CC[C@H](OS(=O)(=O)O)CC1=CC[C@@H]1[C@@H]2CC[C@]2(C)C(=O)CC[C@@H]12,90.1% (inactive)
10,CC(N)(Cc1ccc(O)c(O)c1)C(=O)O (stereo not given),108% (inactive)
11,N[C@H](C(=O)O)c1cc(O)cc(O)c1,108% (inactive)
12,C=CC[C@H](N)C(=O)O,111% (inactive)
13,CNCCCN1c2ccccc2CCc2ccccc21,82.9% (inactive)
14,CCCCNc1c(C(=O)OCC)c(C)nc2c1cnn2CC,87.3% (inactive)
15,NC(C(=O)O)c1cc(=O)[nH]o1 (stereo not given),134% (inactive)
16,COC(=O)C1=CCCN(C)C1,66% (inactive)
17,CC(C)[N+](C)(CCOC(=O)C1c2ccccc2Oc2ccccc21)C(C)C,134% (inactive)
18,O=C(O)/C=C/c1cnc[nH]1,108% (inactive)
19,Cc1o[nH]c(=O)c1CC(N)C(=O)O (stereo not given),104% (inactive)
20,CC[C@@]1(O)C(=O)OCc2c1cc1n(c2=O)Cc2cc3ccccc3nc2-1,0% (inactive)
21,CN1[C@@H](CC(=O)c2ccccc2)CCC[C@H]1C[C@H](O)c1ccccc1,107% (inactive)
22,CCCN(CCC)C1CCc2ccc(O)cc2C1 (stereo not given),87.6% (inactive)
23,O=c1cc(-c2ccccc2)[nH]c2nc(Cl)ccc12,0% (inactive)
24,C=C(C)C1CC=C(C(=O)O)CC1 (stereo not given),109% (inactive)
25,CC(C)(C)NCC(O)COc1cccc2[nH]c(=O)[nH]c12 (stereo not given),103% (inactive)
26,C[N+]1(C)C2CC(OC(=O)[C@H](CO)c3ccccc3)CC1C1OC12 (stereo not given in full),105% (inactive) and 146% (inactive)
27,CN1CCC(=C2c3ccccc3CC(=O)c3sccc32)CC1,105% (inactive)

row,SMILES,vessel count % control
1,COc1ccc2[nH]c3c(c2c1)CCNC3,137% (inactive)
2,COc1cc2c(c(OC)c1OC)-c1ccc(OC)c(=O)cc1[C@@H](NC(C)=O)CC2,116% (inactive)
3,C[C@H](Cc1ccc2c(c1)OC(C(=O)O)(C(=O)O)O2)NC[C@H](O)c1cccc(Cl)c1,98.2% (inactive)
4,CCCCCCCCCCCCCCCCOCC(COCC(F)(F)F)OP(=O)(O)OCO (stereo not given),109% (inactive)
5,COc1ccc2c(c1)C13CCCCC1C(C2)N(C)CC3 (stereo not given),108% (inactive)
6,COc1ccc(CCN(C)CCc2ccc(OC)c(OC)c2)cc1OC,101% (inactive)
7,CCc1cccc(N(C)C(N)=Nc2cccc3ccccc23)c1,105% (inactive)
8,O=C(O)C1C2CCC(O2)C1C(=O)O (stereo not given),98.3% (inactive)
9,N[C@H](CO)C(=O)O,105% (inactive)
10,Cc1ccc2[nH]c(O)c(C3=Nc4ccc(Br)cc4C3=O)c2c1,108% (inactive)
11,CCN1CCCC1CNC(=O)c1cc(S(N)(=O)=O)ccc1OC (stereo not given),112% (inactive)
12,c1cnc2c(c1)ccc1cccnc12,0% (inactive)
13,CCCCCCCCCCCCCCCC(=O)NCC(COP(=O)([O-])OCC[N+](C)(C)C)OCC (stereo not given),115% (inactive)
14,Nc1ncn([C@@H]2O[C@H](CO)[C@@H](O)[C@H]2O)c(=O)n1,65.2% (inactive)
15,CN1C(C(=O)Nc2ccccn2)=C(O)c2ccccc2S1(=O)=O,110% (inactive)
16,O=C1NC(=O)C(c2ccccc2[N+](=O)[O-])=C1Nc1ccc(O)c(Cl)c1,105% (inactive)
17,NC1(C(=O)O)CC1,127% (inactive)
18,CCN(CC)CCCC(C)Nc1ccnc2cc(Cl)ccc12 (stereo not given),108% (inactive)
19,COc1ccc(-c2ccc(N)[n+](CCCC(=O)O)n2)cc1,105% (inactive)
20,N[C@@H](Cc1c[nH]c2ccccc12)C(=O)O,88.5% (inactive)
21,CC(C)Oc1cccnc1N(C)C1CCN(Cc2ccccc2)CC1,98.1% (inactive)
22,N.N.O=C(O)C1(C(=O)O)CCC1.[Pt+2],105% (inactive)
23,COc1cc(C[C@@H](C)N)c(OC)cc1I,93.2% (inactive)
24,C#CCN(C)Cc1ccccc1,91.4% (inactive)
25,CCCN1CC[C@@H]2c3cc(O)ccc3CC[C@@H]21,88.5% (inactive) and 103% (inactive)
26,CCOC(=O)c1ncn2c1[C@@H]1CCCN1C(=O)c1cc(OC)ccc1-2,102% (inactive)
27,O=c1cc(-c2ccc(O)cc2)oc2cc(O)cc(O)c12,87.4% (inactive)

row,SMILES,vessel count % control
1,C[N+](C)(C)CC#CCN1CCCC1=O,99.6% (inactive)
2,CCC(C)N(C)C(=O)c1cc2ccccc2c(-c2ccccc2Cl)n1 (stereo not given),102% (inactive)
3,COc1ccccc1N1CCN(CCN(C(=O)C2CCCCC2)c2ccccn2)CC1,87.8% (inactive)
4,NC/C=C/C(=O)O,97.5% (inactive)
5,CCCCCCCCCCCCCCC[C@H](O)[C@H](N)CO,101% (inactive)
6,O=c1[nH]ccc2c(O)cccc12,0% (inactive)
7,Cn1cc(C(=O)OCC2CCN(CCNS(C)(=O)=O)CC2)c2ccccc21,106% (inactive)
8,C[C@H](CS)C(=O)N1CCC[C@H]1C(=O)O,100% (inactive)
9,CCCCCCN(CCCCCC)C(=O)Cc1c(-c2ccc(F)cc2)[nH]c2ccccc12,126% (inactive)
10,N#Cc1c(-c2ccccc2)no[n+]1[O-],120% (inactive)
11,CCCN1CCC[C@H](c2cccc(O)c2)C1,77.4% (inactive)
12,c1ccc(CCCN2CCN(CCOC(c3ccccc3)c3ccccc3)CC2)cc1,101% (inactive)
13,C[N+](C)(C)CC#CCOC(=O)Nc1cccc(Cl)c1,81.2% (inactive)
14,Oc1cc2c(cc1O)[C@H]1c3ccccc3CN[C@@H]1CC2,83.3% (inactive)
15,N[C@H]1CONC1=O,93% (inactive)
16,NNC(=O)c1ccc(O)cc1,97.5% (inactive)
17,O=c1c2ccccc2nc2n1CCc1c-2[nH]c2ccccc12,64.3% (inactive)
18,NC(Cc1cc(O)c(O)cc1O)C(=O)O (stereo not given),88.2% (inactive)
19,Nc1nc2c(ncn2COC(CO)CO)c(=O)[nH]1,84.5% (inactive)
20,CCCCCCCCCCCCCC(=O)O[C@@H]1[C@@H](C)[C@@]2(O)[C@@H](C=C(CO)C[C@@]3(O)C(=O)C(C)=C[C@@H]23)C2C(C)(C)[C@@]21OC(C)=O (stereo not given in full),0% (inactive)
21,CC1(C)CCC(NC(=O)[C@@H](N)CCC(=O)O)CC1,122% (inactive)
22,COc1ccc2c(c1OC)C(=O)O[C@H]2[C@@H]1c2cc3c(cc2CCN1C)OCO3,116% (inactive)
23,N[C@@H](CC(=O)O)C(=O)O,94.7% (inactive)
24,CNCCC(Oc1ccccc1C)c1ccccc1 (stereo not given),122% (inactive)
25,O=c1c(O)c(-c2ccc(O)c(O)c2)oc2cc(O)cc(O)c12,115% (inactive)
26,CN=C(NC#N)Nc1ccc(C2=NNC(=O)CC2C)cc1 (stereo not given),106% (inactive)
27,NCCc1ccc(S(=O)(=O)F)cc1,87.5% (inactive)

row,SMILES,vessel count % control
1,COc1cccc(OC)c1OCCNCC1COc2ccccc2O1 (stereo not given),90.6% (inactive)
2,O=C1N=C(O)CN1/N=C/c1ccc(-c2ccc([N+](=O)[O-])cc2)o1,90.4% (inactive)
3,CCCN(CC1CC1)c1nc(C)nc(Nc2c(Cl)cc(Cl)cc2Cl)c1Cl,125% (inactive)
4,c1ccc(C2CC2)c(OCC2=NCCN2)c1,104% (inactive)
5,CCCCCCCCC(=O)NCc1ccc(O)c(OC)c1,98.1% (inactive)
6,COc1cc(CCN)ccc1O,124% (inactive)
7,NC(=O)NO,97.8% (inactive)
8,NC(C(=O)N[C@@H]1C(=O)N2C(C(=O)O)=C(Cl)CS[C@H]12)c1ccccc1 (stereo not given in full),108% (inactive)
9,CNC(=O)[C@H]1O[C@@H](n2cnc3c(N)ncnc32)C(O)[C@H]1O (stereo not given in full),118% (inactive)
10,COc1ccccc1CNCCCCCCNCCCCCCCCNCCCCCCNCc1ccccc1OC,113% (inactive)
11,O=C1CC[C@@]2(O)C3Cc4ccc(O)c5c4C2(CCN3CC2CC2)[C@H]1O5 (stereo not given in full),73.7% (inactive)
12,CC(N)=O,108% (inactive)
13,O[Si](CCCN1CCCCC1)(c1ccc(F)cc1)C1CCCCC1 (stereo not given),107% (inactive)
14,Oc1cc(O)cc(/C=C/c2ccc(O)c(O)c2)c1,101% (inactive)
15,Oc1cc(O)c2c(c1)O[C@H](c1ccc(O)c(O)c1)[C@@H](O)C2,114% (inactive)
16,CCN(CC)CC#CCOC(=O)C(O)(c1ccccc1)C1CCCCC1 (stereo not given),125% (inactive)
17,CC(=O)NBr,130% (inactive)
18,O=C(O)c1cccnc1Nc1cccc(C(F)(F)F)c1,102% (inactive)
19,COc1ccc2c3c1O[C@H]1C(=O)CC[C@@]4(O)C(C2)N(CC2CC2)CCC314 (stereo not given in full),124% (inactive)
20,COc1ccc2[nH]cc(CCN(C)C)c2c1,83.1% (inactive)
21,NCCCNCCSP(=O)(O)O,93.3% (inactive)
22,CN1CCC(c2c[nH]c3ccc(O)cc23)CC1,95.9% (inactive)
23,CCC(=O)N1CCN(C(=O)c2ccccc2)CC1,134% (inactive)
24,CC(C)NC(C)Cc1ccc(I)cc1 (stereo not given),109% (inactive)
